From patent US20250283896A1, “PROBES AND METHODS FOR TARGETED VISUALIZATION OF NLRP3 INFLAMMASOMES” (VANDERBILT UNIVERSITY, priority 2022, published 2025)

What was measured:
[1] = system: primary mouse retinal microvascular endothelial cells (MRMEC); assay: Cell viability assay with Calcein Deep Red AM ester; format: cell-based; conditions: 20 h, 70% ethanol in water; p<0.01
Procedure: Cell culture: Bone marrow-derived macrophages (BMDM), isolated from adult C57BL/6 mouse bone marrow, were purchased from ScienCell Research Laboratories (Carlsbad, CA) and cultured in ScienCell's phenol red-free Macrophage Medium (MaM) supplemented with 5% fetal bovine serum (FBS), Macrophage Growth Supplement (MaGS), and 1% Penicillin-Streptomycin (Pen, 100 U/mL; Strep, 100 μg/mL). Mouse Primary Retinal Microvascular Endothelial Cells (MRMEC), isolated from C57BL/6 mice, were purchased from Cell Biologics Inc. […] The medium was additionally supplemented with 10% FBS (R&D Systems, Minneapolis, MN). BMDMs and […] were incubated at 37° C., 5% CO2, and 95% relative humidity. Cell viability assay: […] (Passage 4) were seeded on sterile black 96-well plates in complete medium at a density of 1.5×10^4 cells per well. […] This fluorescent compound is redshifted relative to […]=510/540 nm), which is necessary to avoid interference from any InflammaProbe-1-dependent fluorescence during fluorometric measurements. […] Finally, fluorometric measurements were performed at ex/em=620/660 nm using the Cytation 5 microplate reader (BioTek Instruments, Inc., Winooski, VT). Fluorescence intensities were plotted as the percentage of cell viability relative to the control group. The data were expressed as the mean±SD of 6 replicates per group.

[2] = target: T1, NLRP3 inflammasome (Mus musculus, UniProt Q8R4B8); assay: Inhibition assay of IL-1β (ELISA) in LPS-primed and nigericin-stimulated BMDMs; format: cell-based, murine
T1 construct: InflammaProbe-1 could selectively stain macrophages that have been induced to express NLRP3; host or cells: primary C57BL/6 mouse bone marrow-derived macrophages (BMDM)
T1 sequence (Q8R4B8 whole entry): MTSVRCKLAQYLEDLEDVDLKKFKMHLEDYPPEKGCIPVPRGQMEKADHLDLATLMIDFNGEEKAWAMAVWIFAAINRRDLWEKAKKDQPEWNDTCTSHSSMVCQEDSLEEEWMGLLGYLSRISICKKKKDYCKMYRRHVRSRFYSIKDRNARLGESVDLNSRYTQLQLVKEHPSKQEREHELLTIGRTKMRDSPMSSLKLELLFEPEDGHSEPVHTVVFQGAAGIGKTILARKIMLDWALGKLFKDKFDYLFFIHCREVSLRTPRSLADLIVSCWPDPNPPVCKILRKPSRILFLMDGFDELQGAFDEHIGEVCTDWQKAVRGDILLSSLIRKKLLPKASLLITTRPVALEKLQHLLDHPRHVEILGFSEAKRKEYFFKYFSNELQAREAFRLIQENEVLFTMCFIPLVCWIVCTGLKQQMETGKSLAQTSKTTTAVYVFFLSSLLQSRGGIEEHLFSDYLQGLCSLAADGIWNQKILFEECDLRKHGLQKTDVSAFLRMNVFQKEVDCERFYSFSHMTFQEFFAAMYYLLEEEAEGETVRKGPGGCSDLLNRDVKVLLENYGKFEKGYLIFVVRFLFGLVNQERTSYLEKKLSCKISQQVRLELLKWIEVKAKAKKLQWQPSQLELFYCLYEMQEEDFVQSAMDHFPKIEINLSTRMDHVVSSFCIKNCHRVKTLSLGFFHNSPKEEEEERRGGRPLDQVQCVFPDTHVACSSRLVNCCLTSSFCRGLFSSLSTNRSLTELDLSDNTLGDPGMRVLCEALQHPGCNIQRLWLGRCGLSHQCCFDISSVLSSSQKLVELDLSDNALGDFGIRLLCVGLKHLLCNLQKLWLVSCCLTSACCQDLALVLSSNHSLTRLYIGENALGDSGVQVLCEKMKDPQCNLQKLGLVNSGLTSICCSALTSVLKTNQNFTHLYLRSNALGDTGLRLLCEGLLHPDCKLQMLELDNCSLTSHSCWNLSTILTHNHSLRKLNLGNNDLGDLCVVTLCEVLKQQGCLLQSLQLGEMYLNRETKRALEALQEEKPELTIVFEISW
Procedure: (§1) Cell culture: Bone marrow-derived macrophages (BMDM), isolated from adult C57BL/6 mouse bone marrow, were purchased from ScienCell Research Laboratories (Carlsbad, CA) and cultured in ScienCell's phenol red-free Macrophage Medium (MaM) supplemented with 5% fetal bovine serum (FBS), Macrophage Growth Supplement (MaGS), and 1% Penicillin-Streptomycin (Pen, 100 U/mL; Strep, 100 μg/mL). Mouse Primary Retinal Microvascular Endothelial Cells (MRMEC), isolated from C57BL/6 mice, were purchased from Cell Biologics Inc. (Chicago, IL) and cultured in Cell Biologics' phenol red-free Endothelial Cell Medium supplemented with 0.1% VEGF, 0.1% Heparin, 0.1% EGF, 0.1% ECGS, 0.1% Hydrocortisone, 2 mM L-Glutamine, and 1% Antibiotic-Antimycotic. The medium was additionally supplemented with 10% FBS (R&D Systems, Minneapolis, MN). BMDMs and MRMECs were incubated at 37° C., 5% CO2, and 95% relative humidity.
(§2) Inhibition assay of IL-1β and TNF-α: BMDMs were seeded in 12-well plates at a density of 5×10^4 cells per well. After an overnight incubation, the cells were primed with 50 ng/mL LPS for 3 h, treated with 1 to 10 µM InflammaProbe-1 or CY-09 for 1 h, and stimulated with 10 μM nigericin for another hour to induce NLRP3 activation, as described in the literature. Cell culture supernatants were assayed for mouse IL-1β and TNF-α by performing enzyme-linked immunosorbent assays (ELISA; Invitrogen, Waltham, MA) in accordance with the manufacturer's instructions. The data were expressed as the mean±SD of 3 replicates per group.

[3] = system: TNF-α; assay: Off-target assay of LPS-induced TNF-α secretion (ELISA) in BMDMs; format: cell-based, murine; conditions: 10 μM; in comparison to InflammaProbe-1, p<0.05
Procedure: as §1
as §2, with “Cell culture supernatants were assayed for mouse IL-1β and TNF-α by performing enzyme-linked immunosorbent assays (ELISA; Invitrogen, Waltham, MA) in accordance with the manufacturer's instructions.” left out

[4] = target: NLRP3 (Mus musculus, UniProt Q8R4B8); conditions: murine model, literature; cited from earlier work
Sequence of NLRP3 (Q8R4B8 whole entry): as above

SMILES | viability of MRMECs (positive control) [1] | decrease of IL-1β levels in comparison to the LPS and nigericin control ([2]; 1 μM, p<0.05) [fold] | decrease of IL-1β levels in comparison to the LPS and nigericin control ([2]; 5 μM, p<0.01) [fold] | decrease of IL-1β levels in comparison to the LPS and nigericin control ([2]; 10 μM, p<0.01) [fold] | inhibition of NLRP3-mediated secretion of IL-1β ([2]; LPS-primed and nigericin-stimulated murine BMDM, 1 to 10 μM) | effect on levels of TNF-α [3] | NLRP3-mediated cellular secretion of IL-1β [4]
CCO [70% ethanol, ethanol] | significantly decreased |  |  |  |  |  | 
O=C(O)c1ccc(/C=C2/SC(=S)N(Cc3cccc(C(F)(F)F)c3)C2=O)cc1 [CY-09] |  | ~1.3 | ~2 | ~4 | dose-dependently inhibited | significantly decreased | suppressed
